≈ marks a conversion by molar mass, not a printed value. Read-outs that look alike come from different tables or passages of the source.
What was measured:
Format in all cases: cell-based, Streptococcus pneumoniae
[1] = test system: S Pneumoniae N1387; assay: MIC against resistant S Pneumoniae strain N1387
[2] = test system: S Pneumoniae 410101; assay: MIC against resistant S Pneumoniae strain 410101
[3] = test system: S Pneumoniae 14319; assay: MIC against resistant S Pneumoniae strain 14319
[4] = Streptococcus pneumoniae, read-out: MIC

`CC1(C)S[C@@H]2[C@H](NC(=O)[C@H](N)c3ccc(O)cc3)C(=O)N2[C@H]1C(=O)O` [Amoxycillin] gave an MIC [1, 4] of 2 µg/mL (≈ 5.47 µM), an MIC [2, 4] of 4 µg/mL (≈ 10.9 µM) and an MIC [3, 4] of 4 µg/mL (≈ 10.9 µM).
`CC1(C)S[C@@H]2[C@H](NC(=O)Cc3ccccc3)C(=O)N2[C@H]1C(=O)O` [Penicillin G] was tested, and the MIC [1] was 2 µg/mL (≈ 5.98 µM), the MIC [2] was 4 µg/mL (≈ 12 µM) and the MIC [3] was 8 µg/mL (≈ 23.9 µM).
